The values that follow come from patent publication US4966896A, “Derivative of N-methylcarbamate and insecticide containing the same” (priority 1988, dated 1990).

Like-named read-outs stand apart in the source and are kept apart here.

The test system of data set [1] is Southern root-knot nematode (Meloidogyne incognita). The data set can be described thus: Root-knot index on tomato seedlings in soil contaminated with Southern root-knot nematode (Test Example 3). The data set is classed as in vivo. The following applies: 3% granule, checked 25 days after transplanting. The procedure:
A predetermined quantity of a 3% granule of each compound was mixed with a soil contaminated with Southern root-knot nematode (Meloidogyne incognita). 2 days after treatment of the compound, 3 to 4 leaf stage tomato seedlings were transplanted, and the root-knot index was checked 25 days later.
The root-knot index was determined with the following standard for nemotoidal evaluation.
2 Moderate number of root-knots found
4 Very many root-knots found

Data set [2] is described as follows: Acute oral toxicity in mice (Toxicity Test Example). The following applies: mouse, in vivo, male mice, 7 days after administration, Litchfield-Wilcoxon Method. The procedure: Representative examples of the compound of this invention were administered orally to mice (.male.) and the acute toxicities thereof were tested. LD50 was calculated from the percentage of dead mice according to the Litchfield-Wilcoxon Method 7 days after the administration.

In data set [3] the test system is Green rice leafhopper (Nephotettix cincticeps). The data set can be described thus: Mortality of Green rice leafhopper female adults on pot-grown rice plants treated with a 1000 ppm suspension (Test Example 1). Type of data set: in vivo. The method, then:
10 ml of a 1000 ppm suspension of each sample compound (30% wettable powder) was poured into a pot in which rice plant (1.5 leaf stage) was grown, and the pot was placed in a greenhouse enclosed by glass. 3 days after applying the sample compound, the rice plant was covered by a cylindrical metal netting having a diameter of 7.5 cm and a height of 40 cm and 10 female adults of Green rice leafhopper (Nephotettix cincticeps) were released in the netting. The numbers of living and dead insects were checked 48 hours after applying. The test was repeated twice.

In data set [4] the test system is second instar larvae. The data set can be described thus: Mortality of second instar larvae on pot-grown cabbage treated with a 1000 ppm suspension (Test Example 2). The data set is classed as in vivo. The procedure: 30 ml of a 1000 ppm suspension of each sample compound (30% wettable powder) was poured into a pot in which cabbage (2 to 3 leaf stage) was grown, and the pot was placed in a greenhouse enclosed by glass. 3 days after applying the sample compound, the cabbage was covered by a cylindrical metal netting having a diameter of 7.5 cm and a height of 20 cm and 10 second instar larvae were released in the netting. 48 hours after applying the numbers of living and dead insects were checked. The test was repeated twice.

Data set [5] relates to warm-blooded animals and fishes. The settings on record: prior art statement; cited from earlier work.

In the case of `CCCCNS(=O)(=O)NC(=O)N(C)C(=O)Oc1cccc2c1OC(C)(C)C2` [Compound No. 5, 2,3-dihydro-2,2-dimethylbenzofuran-7-yl N-(butylsulfamoylcarbamoyl) N-methylcarbamate], the “Root-Knot Index” value is reported as 2 in data set [1] (Active Ingredient 250 g/a) and 1 in data set [1] (Active Ingredient 500 g/a). The LD50 at 168 h in data set [2] turned out to be 200 mg/kg. The mortality at 1000 ppm in data set [3] (48 h) and in data set [4] (48 h) was 100% each time.
`CONS(=O)(=O)NC(=O)N(C)C(=O)Oc1cccc2c1OC(C)(C)C2` [compound 14, 2,3-dihydro-2,2-dimethylbenzofuran-7-yl N-(methoxysulfamoylcarbamoyl) N-methylcarbamate]: the figures for the “Root-Knot Index” value in data set [1] (Active Ingredient 250 g/a) and in data set [1] (Active Ingredient 500 g/a) were 3 and 2, respectively. The molecule further yielded a mortality at 1000 ppm in data set [3] (48 h) of 100%.
`CNC(=O)Oc1cccc2c1OC(C)(C)C2` [Control]: the LD50 at 168 h in data set [2] came to 5 mg/kg. Besides, the mortality at 1000 ppm in data set [3] (10 ml of 1000 ppm suspension (30% wettable powder) per pot, insects released 3 days after applying, checked at 48 hours, repeated twice, read-out: Mortality) worked out at 100%; in data set [4] (30 ml of 1000 ppm suspension (30% wettable powder) per pot, larvae released 3 days after applying, checked at 48 hours, repeated twice, read-out: Mortality), 100%.
With `CCC(C)NS(=O)(=O)NC(=O)N(C)C(=O)Oc1cccc2c1OC(C)(C)C2` (centres unmarked) [compound 16], the entries for the “Root-Knot Index” value in data set [1] (Active Ingredient 250 g/a) and in data set [1] (Active Ingredient 500 g/a) were 2 and 1, respectively. The mortality at 1000 ppm in data set [3] (48 h) and in data set [4] (48 h) was 100% in each case.
In the case of `CCNS(=O)(=O)NC(=O)N(C)C(=O)Oc1cccc2c1OC(C)(C)C2` [Compound No. 3, 2,3-Dihydro,2,2-dimethylbenzofurane-7-yl N-(ethylsulfamoylcarbamoyl) N-methylcarbamate], the “Root-Knot Index” value in data set [1] (Active Ingredient 250 g/a) is 2; in data set [1] (Active Ingredient 500 g/a) it was 1. In addition, in data set [2], the 50% lethal dose (LD50) at 168 h is 170 mg/kg. The mortality at 1000 ppm in data set [3] (48 h) and in data set [4] (48 h) was 100% throughout.
Take `CN(C(=O)NS(=O)(=O)NC1CCCCC1)C(=O)Oc1cccc2c1OC(C)(C)C2` [compound 19]: the mortality at 1000 ppm in data set [3] (48 h) stood at 80%.
As to `COc1ccccc1NS(=O)(=O)NC(=O)N(C)C(=O)Oc1cccc2c1OC(C)(C)C2` [compound 9], the “Root-Knot Index” value in data set [1] (Active Ingredient 250 g/a) was 3; in data set [1] (Active Ingredient 500 g/a), 2. Besides, in data set [3] (48 h), the mortality at 1000 ppm stood at 90%.
Turning to `CNC(=O)Oc1cccc2c1OC(C)(C)C2` [Control, 2,3-dihydro-2,2-dimethylbenzofuran-7-yl N-methyl-carbamate], in data set [5], the “toxicity to warm-blooded animals and fishes” value was “extremely toxic to warm-blooded animals and fishes”.
With `CN(C(=O)NS(=O)(=O)NC1CCCC1)C(=O)Oc1cccc2c1OC(C)(C)C2` [compound 18], the mortality at 1000 ppm in data set [3] (48 h) was 80%.
Turning to `CN(C(=O)NS(=O)(=O)Nc1ccccc1Cl)C(=O)Oc1cccc2c1OC(C)(C)C2` [compound 8], the “Root-Knot Index” value in data set [1] (Active Ingredient 250 g/a) was determined as 3; in data set [1] (Active Ingredient 500 g/a) it was 2. Moreover, the mortality at 1000 ppm in data set [3] (48 h) is 90%.
For the molecule `CN(C(=O)NS(=O)(=O)NC(C)(C)C)C(=O)Oc1cccc2c1OC(C)(C)C2` [compound 17], the “Root-Knot Index” value in data set [1] (Active Ingredient 250 g/a) was determined as 2; in data set [1] (Active Ingredient 500 g/a) it was 1. Moreover, the mortality at 1000 ppm in data set [3] (48 h) and in data set [4] (48 h) was 100% each time.
Consider `CCOC(=O)c1ccc(NS(=O)(=O)NC(=O)N(C)C(=O)Oc2cccc3c2OC(C)(C)C3)cc1` [compound 11], for which the “Root-Knot Index” value in data set [1] (Active Ingredient 250 g/a) was 3; in data set [1] (Active Ingredient 500 g/a), 2. This molecule returned a mortality at 1000 ppm in data set [3] (48 h) of 90%.
Consider `CCCNS(=O)(=O)NC(=O)N(C)C(=O)Oc1cccc2c1OC(C)(C)C2` [compound 15, 2,3-dihydro-2,2-dimethylbenzofuran-7-yl N-(propylsulfamoylcarbamoyl) N-methylcarbamate], for which the “Root-Knot Index” value in data set [1] (Active Ingredient 250 g/a) is on record as 2; in data set [1] (Active Ingredient 500 g/a), 1. Besides, the mortality at 1000 ppm in data set [3] (48 h) and in data set [4] (48 h) was 100% in each case.
Take `CNS(=O)(=O)NC(=O)N(C)C(=O)Oc1cccc2c1OC(C)(C)C2` [Compound No. 2, 2,3-Dihydro-2,2-dimethylbenzofuran-7-yl N-(methylsulfamoylcarbamoyl) N-methylcarbamate]: the “Root-Knot Index” value was 3 in data set [1] (Active Ingredient 250 g/a) and 2 in data set [1] (Active Ingredient 500 g/a). Besides, the mortality at 1000 ppm in data set [3] (48 h) and in data set [4] (48 h) was 100% in each case.
Take `COC(=O)c1ccccc1NS(=O)(=O)NC(=O)N(C)C(=O)Oc1cccc2c1OC(C)(C)C2` [compound 10]: the “Root-Knot Index” value amounted to 2 in data set [1] (Active Ingredient 250 g/a) and 1 in data set [1] (Active Ingredient 500 g/a). Further, in data set [3] (48 h), the mortality at 1000 ppm came out at 90%.
For `C#CCNS(=O)(=O)NC(=O)N(C)C(=O)Oc1cccc2c1OC(C)(C)C2` [compound 7, 2,3-dihydro-2,2-dimethylbenzofuran-7-yl N-(propargylsulfamoylcarbamoyl) N-methylcarbamate], the “Root-Knot Index” value in data set [1] (Active Ingredient 250 g/a) came out at 2; in data set [1] (Active Ingredient 500 g/a), 1. Moreover, the mortality at 1000 ppm in data set [3] (48 h) and in data set [4] (48 h) was 100% throughout.
On to `CN(C(=O)NS(=O)(=O)Cl)C(=O)Oc1cccc2c1OC(C)(C)C2` [Compound No. 1, 2,3-Dihydro-2,2-dimethylbenzofuran-7-yl N-(chlorosulfonylcarbamoyl) N-methylcarbamate], for which the “Root-Knot Index” value was 2 in data set [1] (Active Ingredient 250 g/a) and 1 in data set [1] (Active Ingredient 500 g/a). Also, the mortality at 1000 ppm in data set [3] (48 h) and in data set [4] (48 h) was 100% each time.
For the molecule `CN(C(=O)NS(=O)(=O)Nc1ccccn1)C(=O)Oc1cccc2c1OC(C)(C)C2` [compound 13], the “Root-Knot Index” value in data set [1] (Active Ingredient 250 g/a) amounted to 3; in data set [1] (Active Ingredient 500 g/a), 2. The molecule further showed a mortality at 1000 ppm in data set [3] (48 h) of 100%.
As to `CN(C(=O)NS(=O)(=O)Nc1nccs1)C(=O)Oc1cccc2c1OC(C)(C)C2` [compound 12], the “Root-Knot Index” value in data set [1] (Active Ingredient 250 g/a) stood at 3; in data set [1] (Active Ingredient 500 g/a), 2. Besides, the mortality at 1000 ppm in data set [3] (48 h) came to 100%.
`CC(C)NS(=O)(=O)NC(=O)N(C)C(=O)Oc1cccc2c1OC(C)(C)C2` [Compound No. 4]: the results for the “Root-Knot Index” value in data set [1] (Active Ingredient 250 g/a) and in data set [1] (Active Ingredient 500 g/a) were 2 and 1, respectively. For the same molecule, the mortality at 1000 ppm in data set [3] (48 h) and in data set [4] (48 h) was 100% each time.
